Laboratory results taken from paper PMC6668022 (Pharmaceutical research, 2019).
“And” between values parts separate entries of the source, which are not always exact repeats. Equal values may be shown once. “Also recorded” adds a separate entry of the source. Read-outs that look alike come from different tables or passages of the source.

Key:
EBOV [1] = assay: microbe, parasite or virus in culture; assay type: cell-based, Ebola virus
in vitro = conditions: human
HeLa cells = conditions: read-out: HeLa CC50; n=2
EBOV [2] = conditions: in vivo, 30 mg/kg/day; cited from earlier work
[3] = system: VP35-nucleoprotein interface; conditions: cited from earlier work
[4] = Zaire ebolavirus, HeLa, 24 h, read-out: EC50 Activity against EBOV, n=4
[5] = read-out: EC50 Activity against EBOV, n=4

SMILES | EC50 (EBOV [1]; [4]) [µM] | EC50 (EBOV [1]; [5]) | CC50 (in vitro) [µM] | also measured
CC(=O)OCc1ccccc1 [Benzyl acetate] | 10 | 10.7 ± 5 µM | > 50 | 
C=CCc1ccc(O)c(OC)c1 [Eugenol] | 1.3 ± 0.5 |  | > 50 | 
CC(C)[C@@H]1CC[C@@H](C)C[C@H]1O [L- menthol] |  |  |  | EC50 Activity against EBOV (EBOV [1]; n=4): no appreciable activity; also recorded: inactive
NC(=O)c1cccnc1 [Nicotinamide, reference compound] |  |  |  | EC50 Activity against EBOV (EBOV [1]; n=4): inactive
O=C(O)c1cccnc1 [Nicotinic acid, reference compound] |  |  |  | EC50 Activity against EBOV (EBOV [1]): inactive
COc1ccc(C=O)cc1 [P-anisaldehyde] | 2.8 | 2.9 ± 0.6 µM | > 50 | 
CC(=O)OCCc1ccccc1 [Phenethyl acetate] |  | 10 µM and 10.4 µM |  | CC50 (HeLa cells): > 50 µM
CCN(CC)CCOc1ccc2c(c1)C(=O)c1cc(OCCN(CC)CC)ccc1-2 [tilorone] |  |  |  | efficacy in a mouse model of EBOV infection (EBOV [2]): 100%
Cc1ccc(C(=O)c2cc(O)c(O)c([N+](=O)[O-])c2)cc1 [tolcapone] |  |  |  | IC50 [3]: 2 µM
